Laboratory results taken from patent EP1119538B1, “DERIVATIVES OF PHENANTRENE FOR MEDICINAL USE AND A PROCESS FOR THEIR PREPARATION” (Ammar, Khodor, priority 1998, dated 2000).

Test system: intestinal adenocarcinoma cells (lineage CACO-2)
Assay: Proliferation inhibition in intestinal adenocarcinoma cells, lineage CACO-2
Format: cell-based
Conditions: cell lineage CACO-2
Description: Further research has recently been carried out using retinoic acid, sodium butyrate and the invention substances obtained as in Example 1. More specifically, tests were conducted on intestinal adenocarcinoma cells (lineages CACO-2 and HT-29) using isomers of molecular weight 256 - hereinafter referred to simply as "esters 256" - and using the compound of molecular weight 330 corresponding to formula IV, and mixtures mainly containing said compound - hereinafter referred to simply as "HHP" (hydroxy-hydro-phenanthrene). The results were as follows: • 1. The proliferation-inhibiting effect of HHP and butyrate on cell lineage CACO-2 is 80% as compared with 60% for retinoic acid. Inhibition in cell lineage HT-29 treated with HHP of 50µM concentration was 95% by the seventh day. • 2. […] HHP induces in the cell lineages a 3.5 times increase in the number of domes, indicating greater cell differentiation. • 6. […] In CACO-2, alpha 2,6, xyalyl transferase increases 3 times with respect to the control after two weeks' treatment with HHP.

SMILES | proliferation-inhibiting effect
CCCC(=O)[O-].[Na+] [butyrate, sodium butyrate, reference compound] | 80%
CC1=C(/C=C/C(C)=C/C=C/C(C)=C/C(=O)O)C(C)(C)CCC1 [retinoic acid, reference compound] | 60%
